Values quoted from earlier work in patent publication US20040102462A1, “2-(2-amino-1,6-dihydro-6-oxo-purin-9-yl) methoxy-1,3-propanediol derivative” (priority 1994, published 2004).

Conditions: rats; % of the acyclovir dosed

Nc1nc2c(ncn2COCCO)c(=O)[nH]1 [acyclovir, 2-(2-amino-1,6-dihydro-6-oxo-1,6-dihydro-purin-9-yl)methoxy-ethanol]
acyclovir recovered in the urinary recovery assay: 19%
